The test system of this test is human primary IBM cells. Kind of test: Aggresome detection (proteostat) in primary myoblasts from IBM patients. The class given is cell-based. As to conditions: 4 μM for 24 h. The method, then: Figure 4 1-deoxy-SL species accumulate in muscle and brain tissues during aging and contribute to cellular protein aggregation. (A,B) Heat map representing the abundance of sphingolipids in (A) gastrocnemius muscle and (B) brain with and without treatment with ALT-007 in mice (ALT-007 at 1 mg/kg; DMSO at equivalent volume for 20 weeks). N = 8 per group. Data are shown as log2 fold change. Adjusted P values are indicated as follows: *adjusted P < 0.05; **adjusted P < 0.01; ***adjusted P < 0.001. (C,D) Representative images and quantification of protein aggregates upon 1-deoxy-SA (C) and P053 treatment (D) in human primary IBM cells; both were administered at 4 μM for 24 h. N = 8 per group. (E) Analysis of 1-Deoxy-Spa and 1-DeoxyCer 24:1 levels in myoblasts from healthy and IBM patients. N = 3 per group. (C–E) Quantitative data are expressed as median with IQR and compared using the Mann–Whitney U test. All tests were 2 sided. *P < 0.05, **P < 0.01, ***P < 0.001.
Primary myoblasts from IBM patients and healthy aged matched donors were provided by Hospices Civils de Lyon. Cells were grown in DMEM/F-10 supplemented with 12% FBS (Gibco) and penicillin–streptomycin (1×, Gibco). Cells were cultured on sterilized coverslips in six-well plates (Greiner BioOne, CELLSTAR, 657160). […]

Take `CCCCCCCCCCCCCCC[C@@H](O)[C@H](C)N` [1-deoxy-SA, 1-deoxy-sphinganine]: the “cellular protein aggregates (proteostat signal)” value is “significantly exacerbated the accumulation of cellular protein aggregates”.

(Values after publication PMC11729425 (ACS Pharmacology & Translational Science, 2024).)
